{"source": "patent US20060063786A1", "about": "(priority 2002, published 2006)", "test_system": "Pyricularia oryzae", "format": "in vivo", "conditions": "individual active compound, protective, inoculated next day, rated after 6 days", "note": "Read-outs that look alike come from different tables or passages of the source."}
{"compound": "CC1CCN(c2c(-c3c(F)cccc3Cl)c(Cl)nc3ncnn23)CC1", "note": "[A]", "values": [{"measurement": "Efficacy in % of the untreated control", "setting": "1 ppm in the spray liquor", "result": "0 % of the untreated control"}, {"measurement": "Efficacy in % of the untreated control", "setting": "4 ppm in the spray liquor", "result": "28 % of the untreated control"}]}
{"compound": "C[C@H](Nc1c(-c2c(F)cc(F)cc2F)c(Cl)nc2ncnn12)C(F)(F)F", "note": "[B]", "values": [{"measurement": "Efficacy in % of the untreated control", "setting": "1 ppm in the spray liquor", "result": "28 % of the untreated control"}, {"measurement": "Efficacy in % of the untreated control", "setting": "4 ppm in the spray liquor", "result": "52 % of the untreated control"}]}
{"compound": "CNC(=O)/C(=N/OC)c1ccccc1CO/N=C(C)/C(=N/OC)C(/C)=N/OC", "note": "[I (orysastrobin), 2-[2-(2,3-bismethoxyimino-1-methylbutylideneamino-oxymethyl)phenyl]-2-methoxyimino-N-methylacetamide]", "values": [{"measurement": "Efficacy in % of the untreated control", "setting": "0.25 ppm in the spray liquor", "result": "0 % of the untreated control"}, {"measurement": "Efficacy in % of the untreated control", "setting": "4 ppm in the spray liquor", "result": "28 % of the untreated control"}]}
{"compound": "CC1CCN(c2c(-c3c(F)cc(F)cc3F)c(Cl)nc3ncnn23)CC1", "note": "[II, 5-chloro-7-(4-methylpiperidin-1-yl)-6-(2,4,6-trifluorophenyl)-[1,2,4]triazolo[1,5-a]pyrimidine]", "values": [{"measurement": "Efficacy in % of the untreated control", "setting": "1 ppm in the spray liquor", "result": "3 % of the untreated control"}, {"measurement": "Efficacy in % of the untreated control", "setting": "4 ppm in the spray liquor", "result": "52 % of the untreated control"}]}
